Measured values published in patent publication US10221163B2 (priority 2015, dated 2019).
pIC50: −log10 of the molar value. Where two headings read alike, the source gives them in different places.

Assays:
VIM-1 = VIM-1 (Pseudomonas aeruginosa (strain ATCC 15692 / DSM 22644 / CIP 104116 / JCM 14847 / LMG 12228 / 1C / PRS 101 / PAO1), UniProt A0A0F7KYQ8); experiment: biochemical; settings: CCF2-FA substrate, 30 pM enzyme, 2 hours at 25° C.
How it was run: (§1)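 Test compound, enzyme and the FRET cephalosporin substrate CCF2-FA are incubated together for 2 hours at 25° C. Cleavage is followed by fluorescence, and IC50 values are derived from semi-logarithmic inhibition curves fitted with a 4-parameter model.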

[1] = test system: Pseudomonas aeruginosa efflux+ (MB9798), IMP-1; assay type: cell-based; settings: concentration restoring susceptibility to imipenem at 2 μg/mL in the presence of a class A, C, D serine β-lactamase inhibitor closely related to relebactam
How it was run: (§2)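 PAO1 pair, broth microdilution; fixed β-lactam (imipenem/ceftazidime) at ~CLSI breakpoint + fixed class A/C BLI for AmpC; serial MBLi titration; endpoint = MBLi conc. restoring susceptibility; MB9798:MB9799 ratio = efflux liability.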

[2] = test system: Pseudomonas aeruginosa efflux− (MB9799), IMP-1; assay type: cell-based; settings: concentration restoring susceptibility to imipenem at 2 μg/mL in the presence of a class A, C, D serine β-lactamase inhibitor closely related to relebactam
How it was run: as §2

[3] = test system: Klebsiella pneumoniae expressing VIM-1 (IHMA599644); assay type: cell-based; settings: VIM-1 strain IHMA599644, with imipenem 1 μg/ml, 95% inhibition of growth
How it was run: (§3)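 Growth by absorbance after 22–24 h at 35°C defined the read-out, with imipenem fixed at 1 μg/ml alongside compound. Inocula came from overnight blood-agar colonies at 35°C, resuspended in saline and diluted 1:100 in 1.1×CAMHB.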

[4] = test system: Escherichia coli expressing NDM-1 (CLB30005, CLB30016); assay type: cell-based; settings: NDM-1 strain, with imipenem 1 μg/ml, 95% inhibition of growth
How it was run: as §3

[5] = test system: Serratia marcescens expressing IMP-1 (CL5741); assay type: cell-based; settings: IMP-1 strain CL5741, with imipenem 1 μg/ml, 95% inhibition of growth
How it was run: as §3

[6] = test system: Pseudomonas aeruginosa MB9798 vs MB9799; settings: ratio MITC95 PA_9798/MITC95 PA_9799
How it was run: as §2

IMP-1 = IMP-1 (Serratia marcescens, UniProt P52699); experiment: biochemical; assay type: biochemical; settings: fluorescence assay, CCF2-FA substrate, 2 pM enzyme, 2 hours at 25° C.; read-out: IMP-1 IC50
Chain of IMP-1 (P52699 whole entry, looked up, species assumed): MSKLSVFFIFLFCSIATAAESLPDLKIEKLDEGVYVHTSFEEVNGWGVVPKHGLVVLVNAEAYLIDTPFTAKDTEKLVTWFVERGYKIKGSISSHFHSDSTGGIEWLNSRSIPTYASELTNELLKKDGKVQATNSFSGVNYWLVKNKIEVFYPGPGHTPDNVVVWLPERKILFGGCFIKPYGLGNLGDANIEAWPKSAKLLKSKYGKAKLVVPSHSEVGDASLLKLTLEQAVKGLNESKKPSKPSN
How it was run: as §1

NDM-1 = NDM-1 (Klebsiella pneumoniae, UniProt C7C422); experiment: biochemical; assay type: biochemical; settings: fluorescence assay, CCF2-FA substrate, 1 pM enzyme, 2 hours at 25° C.; read-out: NDM-1 IC50
Chain of NDM-1 (C7C422 whole entry, looked up, species assumed): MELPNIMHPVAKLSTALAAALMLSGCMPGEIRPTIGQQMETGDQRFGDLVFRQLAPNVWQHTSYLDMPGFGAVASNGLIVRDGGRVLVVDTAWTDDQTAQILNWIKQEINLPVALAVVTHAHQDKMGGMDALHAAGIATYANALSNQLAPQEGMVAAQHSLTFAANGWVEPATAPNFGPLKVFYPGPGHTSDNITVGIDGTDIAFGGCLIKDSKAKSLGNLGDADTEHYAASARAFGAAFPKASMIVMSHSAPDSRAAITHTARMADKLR
How it was run: as §1

[7] = fluorescence assay, read-out: VIM-1 IC50

NS(=O)(=O)c1c(S(=O)(=O)N[C@@H]2CCNC2)ccc(-c2cnc3cc[nH]c3c2)c1-c1nn[nH]n1 [Example 282, (R)-N1-(pyrrolidin-3-yl)-4-(1H-pyrrolo[3,2-b]pyridin-6-yl)-3-(2H-tetrazol-5-yl)benzene-1,2-disulfonamide]
pIC50 (VIM-1; VIM-1 IC50, fluorescence assay): 9.88
P. aeruginosa expressing IMP-1, efflux + (MB9798) MITC95 [1]: 0.7813 µM
P. aeruginosa expressing IMP-1, efflux − (MB9799) MITC95 [2]: 0.7813 µM
Klebsiella pneumoniae MITC95 [3]: 1.563 µM
Escherichia coli MITC95 [4]: 0.7813 µM
Serratia marcescens MITC95 [5]: 0.7813 µM
Efflux ratio [6]: 1.00
pIC50 (IMP-1): 8.95
pIC50 (NDM-1): 10.35

NCc1nc2c(-c3ccc(S(=O)(=O)N[C@@H]4CCNC4)c(S(N)(=O)=O)c3-c3nn[nH]n3)cccc2[nH]1 [Example 283, (R)-4-(2-(aminomethyl)-1H-benzo[d]imidazol-4-yl)-N1-(pyrrolidin-3-yl)-3-(2H-tetrazol-5-yl)benzene-1,2-disulfonamide]
pIC50 (VIM-1; [7]): 9.91
P. aeruginosa expressing IMP-1, efflux + (MB9798) MITC95 [1]: 0.7813 µM
P. aeruginosa expressing IMP-1, efflux − (MB9799) MITC95 [2]: 0.7813 µM
Klebsiella pneumoniae MITC95 [3]: 1.172 µM
Escherichia coli MITC95 [4]: 0.7813 µM
Serratia marcescens MITC95 [5]: 0.6836 µM
Efflux ratio [6]: 1.00
pIC50 (IMP-1): 8.92
pIC50 (NDM-1): 10.14

Cc1ccc(-c2ccc(S(=O)(=O)N[C@@H]3CCNC3)c(S(N)(=O)=O)c2-c2nn[nH]n2)c2nc(N)[nH]c12 [Example 285, (R)-4-(2-amino-7-methyl-1H-benzo[d]imidazol-4-yl)-N1-(pyrrolidin-3-yl)-3-(2H-tetrazol-5-yl)benzene-1,2-disulfonamide]
pIC50 (VIM-1; VIM-1 IC50, fluorescence assay): 10.04
P. aeruginosa expressing IMP-1, efflux + (MB9798) MITC95 [1]: 0.3906 µM
P. aeruginosa expressing IMP-1, efflux − (MB9799) MITC95 [2]: 0.3906 µM
Klebsiella pneumoniae MITC95 [3]: 0.7813 µM
Escherichia coli MITC95 [4]: 0.7813 µM
Serratia marcescens MITC95 [5]: 0.7813 µM
Efflux ratio [6]: 1.00
pIC50 (IMP-1): 9.50
pIC50 (NDM-1): 10.53

Nc1ccc2cccc(-c3ccc(S(=O)(=O)N[C@@H]4CCNC4)c(S(N)(=O)=O)c3-c3nn[nH]n3)c2n1 [Example 286, (R)-4-(2-aminoquinolin-8-yl)-N1-(pyrrolidin-3-yl)-3-(2H-tetrazol-5-yl)benzene-1,2-disulfonamide]
pIC50 (VIM-1; [7]): 10.06
P. aeruginosa expressing IMP-1, efflux + (MB9798) MITC95 [1]: 0.9766 µM
P. aeruginosa expressing IMP-1, efflux − (MB9799) MITC95 [2]: 0.7813 µM
Klebsiella pneumoniae MITC95 [3]: 1.172 µM
Escherichia coli MITC95 [4]: 1.953 µM
Serratia marcescens MITC95 [5]: 0.7813 µM
Efflux ratio [6]: 1.25
pIC50 (IMP-1): 9.91
pIC50 (NDM-1): 10.68

NS(=O)(=O)c1c(S(=O)(=O)N[C@@H]2CCNC2)ccc(-c2cccc3ncccc23)c1-c1nn[nH]n1 [Example 287, (R)-N1-(pyrrolidin-3-yl)-4-(quinolin-5-yl)-3-(2H-tetrazol-5-yl)benzene-1,2-disulfonamide]
pIC50 (VIM-1; [7]): 9.78
P. aeruginosa expressing IMP-1, efflux + (MB9798) MITC95 [1]: 1.563 µM
P. aeruginosa expressing IMP-1, efflux − (MB9799) MITC95 [2]: 1.563 µM
Klebsiella pneumoniae MITC95 [3]: 3.125 µM
Escherichia coli MITC95 [4]: 1.563 µM
Serratia marcescens MITC95 [5]: 1.563 µM
Efflux ratio [6]: 1.00
pIC50 (IMP-1): 9.21
pIC50 (NDM-1): 10.37

Nc1cc(-c2ccc(S(=O)(=O)N[C@@H]3CCNC3)c(S(N)(=O)=O)c2-c2nn[nH]n2)ccn1 [Example 288, (R)-4-(2-aminopyridin-4-yl)-N1-(pyrrolidin-3-yl)-3-(2H-tetrazol-5-yl)benzene-1,2-disulfonamide]
pIC50 (VIM-1; [7]): 10.11
P. aeruginosa expressing IMP-1, efflux + (MB9798) MITC95 [1]: 1.563 µM
P. aeruginosa expressing IMP-1, efflux − (MB9799) MITC95 [2]: 0.7813 µM
Klebsiella pneumoniae MITC95 [3]: 1.563 µM
Escherichia coli MITC95 [4]: 0.7813 µM
Serratia marcescens MITC95 [5]: 1.563 µM
Efflux ratio [6]: 2.00
pIC50 (IMP-1): 9.34
pIC50 (NDM-1): 10.01

NCCn1nnc2c(-c3ccc(S(=O)(=O)N[C@@H]4CCNC4)c(S(N)(=O)=O)c3-c3nn[nH]n3)cccc21 [Example 289]
pIC50 (VIM-1; [7]): 9.98
P. aeruginosa expressing IMP-1, efflux + (MB9798) MITC95 [1]: 1.563 µM
P. aeruginosa expressing IMP-1, efflux − (MB9799) MITC95 [2]: 0.7813 µM
Klebsiella pneumoniae MITC95 [3]: 1.563 µM
Escherichia coli MITC95 [4]: 0.7813 µM
Serratia marcescens MITC95 [5]: 1.563 µM
Efflux ratio [6]: 2.00
pIC50 (IMP-1): 8.91
pIC50 (NDM-1): 9.60

NCc1csc(Nc2cccc(-c3ccc(S(=O)(=O)N[C@@H]4CCNC4)c(S(N)(=O)=O)c3-c3nn[nH]n3)c2)n1 [Example 290, (R)-3′-((4-(aminomethyl)thiazol-2-yl)amino)-N4-(pyrrolidin-3-yl)-2-(2H-tetrazol-5-yl)-[1,1′-biphenyl]-3,4-disulfonamide]
pIC50 (VIM-1; VIM-1 IC50, fluorescence assay): 9.98
P. aeruginosa expressing IMP-1, efflux + (MB9798) MITC95 [1]: 0.7813 µM
P. aeruginosa expressing IMP-1, efflux − (MB9799) MITC95 [2]: 0.3906 µM
Klebsiella pneumoniae MITC95 [3]: 0.7813 µM
Escherichia coli MITC95 [4]: 0.1953 µM
Serratia marcescens MITC95 [5]: 0.7813 µM
Efflux ratio [6]: 2.00
pIC50 (IMP-1): 9.35
pIC50 (NDM-1): 10.06

NS(=O)(=O)c1c(S(=O)(=O)N[C@@H]2CCNC2)ccc(-c2cccn3ccnc23)c1-c1nn[nH]n1 [Example 291, (R)-4-(imidazo[1,2-a]pyridin-8-yl)-N1-(pyrrolidin-3-yl)-3-(2H-tetrazol-5-yl)benzene-1,2-disulfonamide]
pIC50 (VIM-1; VIM-1 IC50, fluorescence assay): 10.16
P. aeruginosa expressing IMP-1, efflux + (MB9798) MITC95 [1]: 0.7813 µM
P. aeruginosa expressing IMP-1, efflux − (MB9799) MITC95 [2]: 0.7813 µM
Klebsiella pneumoniae MITC95 [3]: 3.125 µM
Escherichia coli MITC95 [4]: 0.7813 µM
Serratia marcescens MITC95 [5]: 1.563 µM
Efflux ratio [6]: 1.00
pIC50 (IMP-1): 9.77
pIC50 (NDM-1): 10.30

NC(=O)c1nc2c(-c3ccc(S(=O)(=O)N[C@H]4CCNC4)c(S(N)(=O)=O)c3-c3nn[nH]n3)cccc2[nH]1 [Example 292, (S)-4-(4-(N-(pyrrolidin-3-yl)sulfamoyl)-3-sulfamoyl-2-(2H-tetrazol-5-yl)phenyl)-1H-benzo[d]imidazole-2-carboxamide]
pIC50 (VIM-1; [7]): 9.83
P. aeruginosa expressing IMP-1, efflux + (MB9798) MITC95 [1]: 0.7813 µM
P. aeruginosa expressing IMP-1, efflux − (MB9799) MITC95 [2]: 1.563 µM
Klebsiella pneumoniae MITC95 [3]: 3.125 µM
Escherichia coli MITC95 [4]: 1.563 µM
Serratia marcescens MITC95 [5]: 3.125 µM
Efflux ratio [6]: 0.50
pIC50 (IMP-1): 9.17
pIC50 (NDM-1): 10.34

Nc1nc(-c2cccc(-c3ccc(S(=O)(=O)N[C@H]4CCNC4)c(S(N)(=O)=O)c3-c3nn[nH]n3)c2)c[nH]1 [Example 294, (S)-3′-(2-amino-1H-imidazol-4-yl)-N4-(pyrrolidin-3-yl)-2-(2H-tetrazol-5-yl)-[1,1′-biphenyl]-3,4-disulfonamide]
pIC50 (VIM-1; VIM-1 IC50, fluorescence assay): 9.13
P. aeruginosa expressing IMP-1, efflux + (MB9798) MITC95 [1]: 1.563 µM
P. aeruginosa expressing IMP-1, efflux − (MB9799) MITC95 [2]: 0.7813 µM
Klebsiella pneumoniae MITC95 [3]: 1.563 µM
Escherichia coli MITC95 [4]: 0.3906 µM
Serratia marcescens MITC95 [5]: 0.7813 µM
Efflux ratio [6]: 2.00
pIC50 (IMP-1): 8.76
pIC50 (NDM-1): 9.71

CNc1nc2c(-c3ccc(S(=O)(=O)N[C@H]4CCNC4)c(S(N)(=O)=O)c3-c3nn[nH]n3)cccc2[nH]1 [Example 295, (S)-4-(2-(methylamino)-1H-benzo[d]imidazol-4-yl)-N1-(pyrrolidin-3-yl)-3-(2H-tetrazol-5-yl)benzene-1,2-disulfonamide]
pIC50 (VIM-1; [7]): 9.76
P. aeruginosa expressing IMP-1, efflux + (MB9798) MITC95 [1]: 0.7813 µM
P. aeruginosa expressing IMP-1, efflux − (MB9799) MITC95 [2]: 0.7813 µM
Klebsiella pneumoniae MITC95 [3]: 1.563 µM
Escherichia coli MITC95 [4]: 0.7813 µM
Serratia marcescens MITC95 [5]: 0.7813 µM
Efflux ratio [6]: 1.00
pIC50 (IMP-1): 9.11
pIC50 (NDM-1): 10.25

N[C@H](CO)CNS(=O)(=O)c1ccc(-c2cccc3[nH]cnc23)c(-c2nn[nH]n2)c1S(N)(=O)=O [Example 296, (S)—N^1-(2-amino-3-hydroxypropyl)-4-(1H-benzo[d]imidazol-4-yl)-3-(2H-tetrazol-5-yl)benzene-1,2-disulfonamide]
pIC50 (VIM-1; [7]): 9.74
P. aeruginosa expressing IMP-1, efflux + (MB9798) MITC95 [1]: 0.7813 µM
P. aeruginosa expressing IMP-1, efflux − (MB9799) MITC95 [2]: 0.7813 µM
Klebsiella pneumoniae MITC95 [3]: 3.125 µM
Escherichia coli MITC95 [4]: 1.563 µM
Serratia marcescens MITC95 [5]: 1.563 µM
Efflux ratio [6]: 1.00
pIC50 (IMP-1): 9.70
pIC50 (NDM-1): 10.39
